Data: patent US20010042341A1, “Vase-added compositions for controlling plant and flower moisture transpiration rates” (priority 2000, published 2001)

System: microorganisms
Conditions: display water (vase water) of cut flowers; prior art antimicrobial

In the case of O=C(O)CC(O)(CC(=O)O)C(=O)O.Oc1cccc2cccnc12 [8-hydroxy quinoline citrate], the growth of microorganisms is reported as “enhance the growth of microorganisms after an initial diminution of their level”.
